The values below come from the NIST ThermoML archive (doi:10.1016/j.jct.2009.05.018).

Structures are written as SMILES. Numbers after ± are expanded uncertainties.

A short description of this data set: molar enthalpy of vaporization or sublimation. To be noted: 298.15 K, Calvet microcalorimetry.

As for `Cc1c[nH]c2ccccc12` [3-methyl-1H-indole], the molar enthalpy (Crystal) was determined as 21.6 ± 0.908 kcal/mol.

Regarding `Cn1ccc2ccccc21` [1-methylindole], where the note is “Liquid”, the molar enthalpy was found to be 14.9 ± 0.765 kcal/mol.

For `Cc1cc2ccccc2[nH]1` [2-methylindole], the molar enthalpy (Crystal) came to 21.2 ± 1.15 kcal/mol.
